According to a melting point compilation (Tetko et al.; mined from patent text by program, amines drawn as free bases though some values may be those of a salt):

In the case of `O=C1C(Cc2ccccc2)C(C(F)(F)F)Nc2ccccc2N1Cc1ccccc1` (stereo unspecified), the melting point was 150 to 151 °C.
`CCCn1c(=O)c2c(nc(/C=C/c3ccc(O)c(OC)c3)n2C)n(CCC)c1=O` showed a melting point of 187 to 188 °C.
`CCCCC1=NC2(CCCC2)C(=O)N1Cc1ccc(-c2ccccc2S(=O)(=O)Nc2noc(C)c2C)c(CCC)c1` gave a melting point of 64 to 66 °C.
`N#CNC(=NCCO[N+](=O)[O-])c1ccc(N)nc1` gave a melting point of 108 °C.
With `N#Cc1ccc(/C=C/C2=CCN(Cc3c[nH]c4ncccc34)CC2)cc1` the melting point was 213 to 215 °C.
Compound `Cc1c(CCl)ncn1S(=O)(=O)N(C)C` has a melting point of 115 to 118 °C.
`O=C1Nc2cc(Cl)c(Cl)cc2N2CCNC[C@H]12` showed a melting point of 136 to 138 °C.
Work on `CCCCc1nn2c(c1Cc1ccc(C(=O)O)cc1)CCCC2` yielded a melting point of 148 to 150 °C.
`Cc1ccnc(-c2ccc(C(F)(F)F)cc2)n1` showed a melting point of 50 °C.
In the case of `COc1ccc2c(c1)C(=O)[C@@H](O)[C@](C#Cc1ccccc1)(c1ccccc1)O2` (relative stereo), the melting point was 135 to 138 °C.
With `CC(C)c1nsc(N)c1C#N` the melting point was 130 to 132 °C.
Work on `O=C(Nc1ccc2[nH]ccc2c1)c1ccco1` yielded a melting point of 181 to 182 °C.
For `Cc1ccc(S(=O)(=O)OC2CCC(C)C2)cc1` (stereo unspecified), the melting point was under 30 °C.
Compound `CCOC(=O)c1cn([C@@H](CSc2cccc(Cl)c2Cl)[C@H](C)O)cn1` has a melting point of 141 to 143 °C.
In the case of `CCC(CC)=NOC(=O)c1cc(-n2c(=O)cc(C(F)(F)F)n(C)c2=O)c(F)cc1Cl`, the melting point was 128 to 130 °C.
`CCCc1nc2c(N)nc3cc(OCCCN4CCCS4(=O)=O)ccc3c2n1CC(C)C` showed a melting point of 142 to 144 °C.
Work on `CC(O)c1cc(-c2cccc(F)c2)ccc1N` (stereo unspecified) yielded a melting point of 136 to 137 °C.
In the case of `CS(=O)(=O)N1CCN(c2ccc3c(c2)N2CCN=C2C(c2ccccc2)=[N+]3[O-])CC1`, the melting point was 252 to 253 °C.
Compound `NC(=O)C(Nc1ccccc1C(=O)C1CC1)c1c(Cl)cccc1Cl` (stereo unspecified) has a melting point of 196 °C.
Work on `Clc1ccc(Oc2ccccc2Oc2ncc(Br)cn2)nc1` yielded a melting point of 93 to 95 °C.
With `COc1cc(COc2nn(-c3ccccc3)cc2CC2SC(=O)N(C)C2=O)ccc1OCc1nc(-c2ccco2)oc1C` (stereo unspecified) the melting point was 111 to 112 °C.
In the case of `COc1ccc(C2=NN(C3CCCCCC3)C(=O)[C@H]3CC=CC[C@@H]23)cc1OC(F)F` (relative stereo), the melting point was 83 °C.
Work on `O=c1[nH][nH]c(=O)c2c(O)c3ccccc3nc12` yielded a melting point of over 400 °C.
For `CC1(c2ccccc2)C(=O)Nc2ccccc2C1=O` (stereo unspecified), the melting point was 194 to 196 °C.
Work on `CCOCC1COc2cc3c(O)c(C(=O)OCC)cnc3cc2O1` (stereo unspecified) yielded a melting point of 266 to 268 °C.
`O=C(c1cc(=O)c2cc(O)ccc2[nH]1)N1CCC(Cc2ccccc2)CC1` gave a melting point of 127 °C.
With `CCOC(=O)CC(CC(=O)Nc1ccc(Cl)c(C=C(Cl)C(=O)OCC)c1)C(F)(F)F` (stereo unspecified) the melting point was 115 to 117 °C.
With `COCN1C(C)=C(C(=O)O)C(c2ccccc2)C(C(=O)OCOC(=O)C(C)(C)C)=C1C` (single isomer, unassigned; (+)) the melting point was 121 to 122 °C.
`CC(=O)Nc1ccc(O)c(CN2CCC(NC(=O)c3ccccc3)CC2)c1` gave a melting point of 242 °C.
Compound `Cc1nc(N2CCN(Cc3ccc(OC(F)F)cc3)C2=O)sc1C(=O)NCc1cccnc1` has a melting point of 166 to 167 °C.
In the case of `O=C(O)CCCCCCCCCCn1c(-c2ccccc2)nc(-c2ccccc2)c1-c1ccccc1`, the melting point was 76 to 78 °C.
`Cc1c(N2C(=O)C[C@H](O)[C@@H]2C)ccc(C#N)c1F` showed a melting point of 114 to 115 °C.
`COc1ccc(CN(C)CCCSc2ccc(NC(=O)c3cccc4c(=O)c5cccc(OC)c5[nH]c34)cc2)cc1OC` showed a melting point of 184 to 186 °C.
`NC(=O)c1ncn2c(-c3ccccc3)ccnc12` gave a melting point of 226 to 228 °C.
`CCCc1c(OCCCOc2ccc(-c3coc(C)n3)c(OC)c2CCC)ccc2c1OC(C(=O)O)CC2` (stereo unspecified) gave a melting point of 111 to 115 °C.
Compound `CN1CCN(c2ccc([N+](=O)[O-])cc2)S1(=O)=O` has a melting point of 155 to 163 °C.
Work on `CN(C)C1(Cc2ccccc2)CCC(O)(c2cc3ccccc3o2)CC1` (stereo unspecified) yielded a melting point of 121 to 124 °C.
Compound `CC(C)(C)[Si](C)(C)OC1CCN(S(=O)(=O)c2ccc(N3CCCCC3)cc2)C1=O` (stereo unspecified) has a melting point of 111 to 112 °C.
For `COc1cc(OC)c(C2=NC(NC(=O)Nc3cccc(C)c3)C(=O)N(C)c3ccccc32)c(OC)c1` (stereo unspecified), the melting point was 240 °C.
In the case of `CN(C)S(=O)(=O)Oc1ccc(-c2ccccc2)cc1`, the melting point was 105 to 107 °C.
With `O=C(O)Cc1cc2c(c(C(=O)O)c1)NCCC2` the melting point was 210 to 211 °C.
For `CCc1c(Cl)cc(C(C)(C)C)c(O)c1-c1nc2ccc(S(=O)(=O)C(F)(F)F)cc2c(=O)[nH]1`, the melting point was 285 to 286 °C.
For `Cc1nn(CC(F)CO)c(-c2ccc(F)cc2)c1-c1ccc2c(c1)NC(=O)CO2` (stereo unspecified), the melting point was 193 to 196 °C.
Compound `O=P(O)(O)CCCCCCC(F)(F)C(F)(F)C(F)(F)C(F)(F)F` has a melting point of 107 to 108 °C.
`CC(C)C(NC(=O)OC(C)(C)C)C(=O)OC(O)C(=O)C1C(C)CC2C3CC(F)C4=CC(=O)C=CC4(C)C3C(O)CC21C` (stereo unspecified) gave a melting point of 166 to 168 °C.
With `Cc1ccc2c(c1)C=Cc1cc(C)ccc1C2c1cn(Cc2ccc(C(=O)Nc3nc(CC(=O)Nc4nc(CC(=O)O)cs4)cs3)o2)c(=O)[nH]c1=S` the melting point was 253 °C.
With `Cc1c(C)c2c(c(C)c1NC(=O)CC(C)(C)C)C(c1ccccc1)C(C)(C)O2` (stereo unspecified) the melting point was 214 to 215 °C.
`OCC1COC(Cn2cncn2)(c2ccc(Oc3ccccc3)cc2)O1` (stereo unspecified) gave a melting point of 111 to 112 °C.
`COC(=O)c1cc(I)ccn1` showed a melting point of 73 to 74 °C.
Work on `CC(=O)Nc1cccc2c1NC(=O)C2c1ccccc1` (stereo unspecified) yielded a melting point of 258 to 262 °C.
Work on `COc1cccc2c1-c1c(ccn1CCNC(C)=O)CC2` yielded a melting point of 132 to 133 °C.
In the case of `Nc1cc(SC2=CCCCC2)ccc1[N+](=O)[O-]`, the melting point was 100 to 102 °C.
Work on `CSC(=NC#N)NCCSCc1ccc(Nc2ccccc2)nc1` yielded a melting point of 180 to 182 °C.
`O=c1[nH]c(=O)c2ccsc2[nH]1` showed a melting point of over 300 °C.
Compound `CN1CCc2cc(O)c(O)c(Sc3ccsc3)c2CC1` has a melting point of 189 to 191 °C.
`N#CCN1C(=O)COc2ccc([N+](=O)[O-])cc21` gave a melting point of 173 °C.
`C=CC(O)c1cc(O)ccc1[N+](=O)[O-]` (stereo unspecified) gave a melting point of 126 to 130 °C.
In the case of `C[C@@H]1N(c2ccc(C#N)c(Cl)c2)C(=O)C[C@]1(C)O`, the melting point was 93 to 99 °C.
`CS(=O)c1ccc(CSc2nnc(-c3ccc4c(c3)CCO4)o2)cc1C(F)(F)F` (stereo unspecified) showed a melting point of 177 to 178 °C.
Compound `CN(C)c1ccc(N=Nc2ccccc2C(=O)NCCNC(=O)OC(C)(C)C)cc1` has a melting point of 131 to 134 °C.
`O=c1c(Cc2ccccc2)cn(-c2cccc(Cl)c2)c2ncccc12` showed a melting point of 170 to 171 °C.
`OCCOCc1csc2ccccc12` showed a melting point of 149 to 150 °C.
For `O=C(O)CCCCCCCn1c(-c2ccccc2)nc(-c2ccccc2Cl)c1-c1ccccc1Cl`, the melting point was 198 °C.
`CNC(=S)C1(c2cnc3ccccc3c2)CCCCC1=CC=O` (stereo unspecified) showed a melting point of 149 to 151 °C.
Work on `CCc1cccc(N=C(C)Nc2cccc(CC)c2)c1` yielded a melting point of 86 to 87 °C.
`O=[N+]([O-])c1ccccc1Oc1ccc(Cl)cc1Cl` showed a melting point of 54 to 55 °C.
In the case of `COC(=O)C=Cc1cc(-c2nn(C)c(C(F)(F)F)c2Cl)c(F)cc1Cl`, the melting point was 117 °C.
In the case of `OC1CSC(Oc2cc(-c3ccc(F)nc3)ccc2Cl)C(O)C1O` (stereo unspecified), the melting point was 185 °C.
`COC1C(O)C(CO)OC1n1cnc2c(=S)n(C)cnc21` (stereo unspecified) gave a melting point of 182 to 187 °C.
For `Cc1ccc(CC(=O)NCc2cccc3c2C(=O)N(C2CCC(=O)NC2=O)C3=O)cc1F` (stereo unspecified), the melting point was 148 to 150 °C.
In the case of `CN1CCc2cc([N+](=O)[O-])c(O)cc2C(c2ccc3c(c2)CCC3)C1` (stereo unspecified), the melting point was 58 to 63 °C.
Work on `CC(SCC(=O)O)c1ccc(-c2ccccc2F)cc1` (stereo unspecified) yielded a melting point of 125 to 127 °C.
`CC1=C(C(=O)OC(C)(C)C)C(c2ccccc2F)C(C(=O)OC(C)(C)C)=C(C)N1` showed a melting point of 201 to 202 °C.
For `CC(C)(C)OC(=O)COC1CCN(C(=O)CC(=O)Nc2ccc(C(N)=NO)cc2)CC1`, the melting point was 161 to 163 °C.
Work on `O=C1c2ccccc2C(=O)N1OC/C=C/Cc1ccccc1` yielded a melting point of 70 to 71 °C.
In the case of `CCc1c(CC(=O)NCCCCCCNC(=O)Cc2ccc([N+](=O)[O-])cc2)ccc(OC)c1OC`, the melting point was 146 to 148 °C.
Compound `Cc1c(NC(=O)c2cc3c(s2)CCCC3)cccc1-c1cn(C)c(=O)c(Nc2ccc([C@@H](C(=O)N(C)C)N(C)C(C)C)cc2)n1` has a melting point of 133 to 134 °C.
Work on `COC(=O)c1ccccc1S(=O)(=O)NC(=O)Nc1nc(C)cc(CF)n1` yielded a melting point of 181 to 186 °C.
For `CC(C)(Oc1ccc(F)cc1Cl)C(=O)O`, the melting point was 63 to 65 °C.
`CCCCOc1ccc(CCNc2ncnc(CC)c2C(=O)O)cc1` gave a melting point of 208 to 211 °C.
`C[C@H]1CCCN(C(=O)Cc2ccc(Cl)c(Cl)c2)[C@H]1C=O` (relative stereo) showed a melting point of 97 to 98 °C.
`CCN(CC)C(=O)c1ccc(C(=O)N2CCN(c3ncccc3NC(C)C)CC2)nc1` showed a melting point of 100 to 102 °C.
For `COc1ccnc(CCc2nc3cc(-c4ccc(S(=O)(=O)N(C)C)c(F)c4)cnc3[nH]2)c1`, the melting point was 211 to 212 °C.
`C=CCOC(=O)c1ccccc1Cn1c(=O)n(S(=O)(=O)c2ccc(Cl)cc2)c(=O)c2ccc(Cl)cc21` gave a melting point of 155 to 156 °C.
For `O=C(CNS(=O)(=O)c1ccc2ccccc2c1)NCC(NC(=O)C1CCN(c2ccncc2)CC1)C(=O)N1CCCCC1` (stereo unspecified), the melting point was 200 to 202 °C.
Work on `COc1ccc(CCN(C)C)c2[nH]c(=O)[nH]c12` yielded a melting point of 197 to 199 °C.
`COC(=O)C1CCC2(C)C(=CC(O)C3C2CCC2(C)C(O)CCC32)C1` (stereo unspecified) gave a melting point of 150 to 152 °C.
In the case of `O=C(CCCCCCOc1ccc(OCc2ccccc2)cc1)c1nnc(COCc2ccccc2)o1`, the melting point was 95 to 97 °C.
With `CC#CCOc1ccc(S(=O)(=O)NC2(C(=O)O)CCCCC2)cc1` the melting point was 112 to 114 °C.
Work on `CN1CC(=O)N(c2ccc(C#N)c(C(F)(F)F)c2)C1=S` yielded a melting point of 220 to 221 °C.
`CCc1nc2c(cnn2CC)c(NC2CCOCC2)c1CNC(=O)c1cc(C)cc(C(=O)NCc2ccc(OC)c(Br)c2)c1` showed a melting point of 123 to 126 °C.
For `CCc1nn2ccccc2c1N(CCF)C(=O)COC`, the melting point was 66.9 to 70.6 °C.
In the case of `Cc1ccc(CC(CNC(=O)C(C)c2ccc(NS(C)(=O)=O)cc2)COC(=O)C(C)(C)C)cc1C` (stereo unspecified), the melting point was 112 to 115 °C.
With `CC(C)(C)c1ccc(/C=C/C(=O)Nc2ccc3c(c2)NCCC3)cc1` the melting point was 225 to 227 °C.
With `CC(CCCCCCNC(=O)c1ccc(OC(F)(F)F)cc1)NC(=O)c1ccc(OC(F)(F)F)cc1` (stereo unspecified) the melting point was 137 to 138 °C.
`CCC1(CC(=NNc2ccc([N+](=O)[O-])cc2[N+](=O)[O-])C(=O)OC)CCCN2CCc3c([nH]c4ccccc34)C21` (stereo unspecified) gave a melting point of 205 to 206 °C.
